What was measured:
[1] = Aqueous solubilities of N-alkylalkano and N-H hydroxamic acids (Table 1); type: physicochemical
From the text: It is desirable that the N-organo hydroxamic acid have low solubility in water in order to effect ready separation of the chelated gallium from the aqueous oxidizing medium.
For the extraction to occur, it is necessary that the extractant have some slight solubility in the aqueous Ga-containing medium.

[2] = Solubility in a typical phosphate rock treater dust leachate; type: physicochemical; conditions: leachate with high concentrations of Al, Zn, Fe, phosphate and other ions
From the text: It wlll be noted that most of the N-alkyl hydroxamic acids have very low solubilities in aqueous media, with the solubility tending to increase with decreasing number of carbon atoms in the hydroxamic acids. […] This appreciable but limited solubility appears responsible for the effectiveness of N-methylnonanohydroxamic acid in extracting Ga from such leachates, with regard to both rate and extent of the extraction compared to higher carbon number N-alkyl hydroxamic acids. For the extraction to occur, it is necessary that the extractant have some slight solubility in the aqueous Ga-containing medium.

[3] = Example 2: complexing agents with hydrogen peroxide to oxidize and dissolve gallium arsenide (Table 3)
[4] = Example 1: gallium recovery from Lap Sludge by simultaneous dissolution and separation
[5] = Viscosity of hydroxamic acids; type: physicochemical; conditions: neat, without a solvent
From the text: When a liquid hydroxamic acid compound is used, it can be used neat as the organic phase in the oxidation-dissolution reaction and the subsequent extraction-separation. However it will often be preferable to use an organic solvent as an extender, or to lower viscosity or lessen absorption or resulting losses of the hydroxamic acid, or to promote phase separation, and the organic phase often includes a liquid hydrocarbon solvent. Such solvent must be substantially water immiscible so as to be separable from the aqueous solutions containing the arsenic values. Suitable solvents include aliphatic and aromatic hydrocarbons such as kerosene, hexane, toluene, methylene chloride, chloroform, carbon tetrachloride, xylene, naphtha, cyclohexane, Chevron Ion Exchange solvent, Kermac 470-B. Solvesso 100 and the like. Kerosene and other low viscosity, high flash point petrolleum distillates are preferred. Generally, the hydroxamic compounds will be present in the organic phase in an amount of at least about 2% by weight. Preferably, the N-alkyl alkanohydroxamic compound will be present in the amount of 2 to 40%, more preferably about 10 to 35%, by weight based on the total organic phase. Viscosity and/or solubility serves to fix the upper limit of the content of said hydroxamic compound which will depend upon the structure of the compound employed. […]

[6] = 30% H2SO4 strip of organic phase
[7] = aqueous phase plus dilute nitric acid and other washes

CCCCCCCCC(=O)N(C)O [N-methylnonanohydroxamic acid]
Solubility (25° C.) [1]: 409. ppm
Solubility (25° C.), molarity [1]: 2.18 × 10^-3 molarity
solubility in a typical phosphate rock treater dust leachate [2]: 20 ppm
solubility in a typical phosphate rock treater dust leachate, molarity [2]: 1.07×10^-4 molarity
% Ga in Solution After 4 Days [3]: 100%
effectiveness in reaction and dissolution of gallium arsenide ([3]; H2O2 as oxidizing agent): effective complexing agent
As in combined aqueous acid stripping solutions [4, 6]: 15 ppm
Ga in combined aqueous acid stripping solutions [4, 6]: 1100 ppm
As in combined aqueous phase and wash solutions [4, 7]: 2510 ppm
Ga in combined aqueous phase and wash solutions [4, 7]: 114 ppm
arsenic and gallium in water washings of organic phase ([4]; detection limit less than 1 ppm for each element): Neither arsenic nor gallium was detectable
Ga recovered per gram of starting sludge ([4]; starting sludge 17.7 mg Ga/gram): 17.8 mg Ga per gram
As recovered per gram of starting sludge ([4]; starting sludge analyzed 13.4 mg As/gram): 17.3 mg As/gram

N-methyl isostearohydroxamic acid
viscosity [5]: sufficiently low viscosity that they can be used neat

Source: patent US4759917A, “Oxidative dissolution of gallium arsenide and separation of gallium from arsenic” (priority 1987, dated 1988)
